This is an account of results in US11279735B2, “Cyclic peptide antibiotics” (priority 2017, dated 2022).

The term MIC denotes the least concentration at which growth counts as inhibited.

≈ marks a conversion by molar mass, not a printed value. *1 amine or outer side, *2 acyl side, *3 side chain or, on linkers, in order; H or OH if unused. Where a SMILES comes first, the peptide text is derived from it. [ ]: non-standard residue; d: D form. The star is where a group is joined. X5 = CCCC[C@@H](OC[C@@H](C)N[*:1])[C@@H](CCCC)C(=O)[*:2]; X2 = CCCCCC[C@@H](OC[C@@H](C)N[*:1])[C@@H](C)C(=O)[*:2]; X23 = CCCCCCCCCC[C@@H](OCCN[*:1])[C@@H](C)C(=O)[*:2]; aIle = CC[C@@H](C)[C@H](N)C(=O)O; aThr = C[C@H](O)[C@H](N)C(=O)O; NMeL = CN[C@@H](CC(C)C)C(=O)O; Chg = N[C@H](C(=O)O)C1CCCCC1; NMeNva = CCC[C@H](NC)C(=O)O; Dap = NC[C@H](N)C(=O)O; X15 = OC[C@@H](O)C*; X7 = NCC(O)C*

This test has as its system Escherichia coli (E. coli) strain CFT073 ATCC 700928. The format is cell-based. Particulars: ATCC 700928, 22 h. In short, it runs like this:
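MICs were read after 22 h at 35 °C, with bacteria added to a final OD600 of 0.0005. Compounds were serially diluted 2-fold over ten concentrations from a top of 64, 4, 0.5 or 0.13 μg/mL (protocols 1–4). Medium was cation-adjusted Mueller Hinton II broth plus 0.002% Tween-80, following CLSI M07-A8.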
In turn, `CCCCCCCCCC[C@H]1OC(=O)CNC(=O)[C@H]([C@H](C)O)NC(=O)[C@H](CN)NC(=O)[C@H]([C@H](C)CC)NC(=O)C(CCC(F)(F)F)N(C)C(=O)[C@@H]1C` (single isomer, unassigned) [Example 17, 9-(aminomethyl)-19-decyl-6-(1-hydroxyethyl)-16,18-dimethyl-12-sec-butyl-15-(3,3,3-trifluoropropyl)-1-oxa-4,7,10,13,16-pentazacyclononadecane-2,5,8,11,14,17-hexone] gave an MIC of 25 µM (≈ 18.8 µg/mL). For the molecule `CCCCCC[C@H]1OC(=O)CNC(=O)[C@H]([C@H](C)O)NC(=O)[C@H](CN)NC(=O)[C@H](C2CCCCC2)NC(=O)[C@H](CC)N(C)C(=O)[C@@H]1C` [Example 111, (6S,9S,12S,15S,18R,19R)-9-(aminomethyl)-12-cyclohexyl-15-ethyl-19-hexyl-16,18-dimethyl-6-[(1S)-1-hydroxyethyl]-1-oxa-4,7,10,13,16-pentazacyclononadecane-2,5,8,11,14,17-hexone], the MIC is 8.8 µM (≈ 5.74 µg/mL). The value for `CCCCCC[C@H]1OC(=O)CNC(=O)[C@H](COCCCN)NC(=O)[C@H](CN)NC(=O)[C@H](C2CCCCC2)NC(=O)[C@H](CC(C)C)N(C)C(=O)[C@@H]1C` [Example 51, (6S,9S,12S,15S,18R,19R)-9-(Aminomethyl)-6-((3-aminopropoxy)methyl)-12-cyclohexyl-19-hexyl-15-isobutyl-16,18-dimethyl-1-oxa-4,7,10,13,16-pentaazacyclononadecane-2,5,8,11,14,17-hexaone] was 8.7 µM (≈ 6.3 µg/mL). In turn, `CCCCCCCCCC[C@H]1OCCNC(=O)[C@H](CO)NC(=O)[C@H](CN)NC(=O)[C@H]([C@H](C)CC)NC(=O)[C@H](CC(C)C)N(C)C(=O)[C@@H]1C` [Example 99, (6S,9S,12S,15S,18R,19R)-9-(aminomethyl)-19-decyl-6-(hydroxymethyl)-15-isobutyl-16,18-dimethyl-12-[(1R)-1-methylpropyl]-1-oxa-4,7,10,13,16-pentazacyclononadecane-5,8,11,14,17-pentone] (cyclo([Dap]S[X23][NMeL][aIle])) gave an MIC of 17 µM (≈ 11.6 µg/mL).

Molecule `CCCCCCCCCC[C@H]1OC(=O)CNC(=O)[C@H](CO)NC(=O)[C@H](CN)NC(=O)[C@H]([C@H](C)CC)NC(=O)[C@H](CC(C)C)N(C)C(=O)[C@@H]1C` [Example 12, (6S,9S,12S,15S,18R,19R)-9-(aminomethyl)-19-decyl-6-(hydroxymethyl)-15-isobutyl-16,18-dimethyl-12-[(1R)-1-methylpropyl]-1-oxa-4,7,10,13,16-pentazacyclononadecane-2,5,8,11,14,17-hexone] returned an MIC of 4.7 µM (≈ 3.28 µg/mL). As to `CCCCCC[C@H]1OC[C@@H](C)NC(=O)[C@H](CNCCO)NC(=O)[C@H](CN)NC(=O)[C@H](C2CCCCCC2)NC(=O)[C@H](CC(C)C)N(C)C(=O)[C@@H]1C` [Example 169, (3R,6S,9S,12S,15S,18R,19R)-9-(Aminomethyl)-12-cycloheptyl-19-hexyl-6-(((2-hydroxyethyl)amino)methyl)-15-isobutyl-3,16,18-trimethyl-1-oxa-4,7,10,13,16-pentaazacyclononadecane-5,8,11,14,17-pentaone], the MIC was determined as 6.3 µM (≈ 4.56 µg/mL). The MIC values of the last two molecules are within 1.5-fold of each other. The molecule `CCCCCC[C@H]1OC(=O)CNC(=O)[C@H]([C@H](C)O)NC(=O)[C@H](CN)NC(=O)[C@H](Cc2ccccc2)NC(=O)[C@H](CC(C)C)N(C)C(=O)[C@@H]1C` [Example 91, (6S,9S,12S,15S,18R,19R)-9-(aminomethyl)-12-benzyl-19-hexyl-15-isobutyl-16,18-dimethyl-6-[(1S)-1-hydroxyethyl]-1-oxa-4,7,10,13,16-pentazacyclononadecane-2,5,8,11,14,17-hexone] had an MIC of 50 µM (≈ 34.4 µg/mL). The figure for `CCCC[C@H]1OC[C@@H](C)NC(=O)[C@H]([C@H](C)O)NC(=O)[C@H](CN)NC(=O)[C@H](C2CCCCC2)NC(=O)[C@H](CCC)N(C)C(=O)[C@@H]1CCCC` [Example 77, (3R,6S,9S,12S,15S,18R,19R)-9-(Aminomethyl)-18,19-dibutyl-12-cyclohexyl-6-((S)-1-hydroxyethyl)-3,16-dimethyl-15-propyl-1-oxa-4,7,10,13,16-pentaazacyclononadecane-5,8,11,14,17-pentaone] (cyclo([Chg][Dap][aThr][X5][NMeNva])) is 4.4 µM (≈ 3 µg/mL); for `CCCCCCCCCC[C@H]1OC(=O)CNC(=O)[C@H]([C@H](C)O)NC(=O)[C@H](CN)NC(=O)[C@H](C2CCC(F)(F)CC2)NC(=O)[C@H](CC(C)C)N(C)C(=O)[C@@H]1C` (single isomer, unassigned) [Example 53] it is 25 µM (≈ 19.3 µg/mL). The figure for `CCCCCC[C@H]1OC(=O)CNC(=O)[C@H]([C@H](C)O)NC(=O)[C@H](CN)NC(=O)[C@H](c2ccccc2)NC(=O)[C@H](CC(C)C)N(C)C(=O)[C@@H]1C` [Example 98, (6S,9S,12S,15S,18R,19R)-9-(aminomethyl)-19-hexyl-15-isobutyl-16,18-dimethyl-12-phenyl-6-[(1S)-1-hydroxyethyl]-1-oxa-4,7,10,13,16-pentazacyclononadecane-2,5,8,11,14,17-hexone] is 71 µM (≈ 47.9 µg/mL); for `CC(C)C[C@H]1C(=O)N[C@@H](C2CCCCC2)C(=O)N[C@@H](CN)C(=O)N[C@@H]([C@H](C)O)C(=O)NCC(=O)O[C@H](CCC2CC3CCC2C3)[C@@H](C)C(=O)N1C` (stereo partly drawn) [Example 60, (6S,9S,12S,15S,18R,19R)-9-(Aminomethyl)-19-(2-(bicyclo[2.2.1]heptan-2-yl)ethyl)-12-cyclohexyl-6-((S)-1-hydroxyethyl)-15-isobutyl-16,18-dimethyl-1-oxa-4,7,10,13,16-pentaazacyclononadecane-2,5,8,11,14,17-hexaone] it is 0.73 µM (≈ 0.525 µg/mL). The figure for `CCCCCCCCCC[C@H]1OC(=O)CNC(=O)[C@H](C(C)(C)O)NC(=O)[C@H](CO)NC(=O)[C@H]([C@@H](C)CC)NC(=O)[C@H](CC(C)C)N(C)C(=O)[C@@H]1C` [Example 21, (6S,9S,12S,15S,18R,19R)-19-decyl-9-(hydroxymethyl)-6-(1-hydroxy-1-methyl-ethyl)-15-isobutyl-16,18-dimethyl-12-[(1S)-1-methylpropyl]-1-oxa-4,7,10,13,16-pentazacyclononadecane-2,5,8,11,14,17-hexone] is 50 µM (≈ 36.3 µg/mL). `CCCCCC[C@H]1OC[C@@H](C)NC(=O)[C@H](COC[C@H](O)CO)NC(=O)[C@H](CN)NC(=O)[C@H](C2CCCCC2)NC(=O)[C@H](CC(C)C)N(C)C(=O)[C@@H]1C` [Example 136, (3R,6S,9S,12S,15S,18R,19R)-9-(aminomethyl)-12-cyclohexyl-19-hexyl-15-isobutyl-3,16,18-trimethyl-6-[[(2R)-2,3-dihydroxypropoxy]methyl]-1-oxa-4,7,10,13,16-pentazacyclononadecane-5,8,11,14,17-pentone] (cyclo([Chg][Dap]S(X15)[X2][NMeL])) returned an MIC of 8.8 µM (≈ 6.52 µg/mL). Turning to `CCCCCCC[C@H]1OC(=O)CNC(=O)[C@H]([C@H](C)O)NC(=O)[C@H](CO)NC(=O)[C@H]([C@H](C)CC)NC(=O)[C@H](CC(C)C)N(C)C(=O)[C@@H]1CC` [Example 8, (6S,9S,12S,15S,18R,19R)-12-((R)-sec-Butyl)-18-ethyl-9-heptyl-6-((S)-1-hydroxyethyl)-9-(hydroxymethyl)-15-isobutyl-16-methyl-1-oxa-4,7,10,13,16-pentaazacyclononadecane-2,5,8,11,14,17-hexaone], the MIC stood at 25 µM (≈ 17.1 µg/mL). The molecule `CCCCCC[C@H]1OC(=O)CNC(=O)[C@H](CNC(=O)CN)NC(=O)[C@H](CN)NC(=O)[C@H](C2CCCCC2)NC(=O)[C@H](CC(C)C)N(C)C(=O)[C@@H]1C` [Example 139, 2-amino-N-[[(6S,9S,12S,15S,18R,19R)-9-(aminomethyl)-12-cyclohexyl-19-hexyl-15-isobutyl-16,18-dimethyl-2,5,8,11,14,17-hexaoxo-1-oxa-4,7,10,13,16-pentazacyclononadec-6-yl]methyl]acetamide] gave an MIC of 18 µM (≈ 13 µg/mL). The figure for `CCCCCC[C@H]1OC(=O)CNC(=O)[C@H](CNC(=O)C2CNC2)NC(=O)[C@H](CN)NC(=O)[C@H](C2CCCCC2)NC(=O)[C@H](CC(C)C)N(C)C(=O)[C@@H]1C` [Example 72, N-(((6S,9S,12S,15S,18R,19R)-9-(Aminomethyl)-12-cyclohexyl-19-hexyl-15-isobutyl-16,18-dimethyl-2,5,8,11,14,17-hexaoxo-1-oxa-4,7,10,13,16-pentaazacyclononadecan-6-yl)methyl)azetidine-3-carboxamide] is 12 µM (≈ 8.99 µg/mL); for `Cc1ccc(C[C@H]2C(=O)N(C)[C@@H](CC(C)C)C(=O)N[C@@H](C3CCCCC3)C(=O)N[C@@H](CN)C(=O)N[C@@H]([C@H](C)O)C(=O)NCC(=O)O[C@@H]2CCC(F)(F)F)cc1` [Example 112, (6S,9S,12S,15S,18R,19R)-9-(aminomethyl)-12-cyclohexyl-15-isobutyl-16-methyl-18-(p-tolylmethyl)-6-[(1S)-1-hydroxyethyl]-19-(3,3,3-trifluoropropyl)-1-oxa-4,7,10,13,16-pentazacyclononadecane-2,5,8,11,14,17-hexone] it is 71 µM (≈ 55.6 µg/mL); for `CCCCCC[C@H]1OC[C@@H](C)NC(=O)[C@H](COCC(O)CN)NC(=O)[C@H](CN)NC(=O)[C@H](C2CCCCC2)NC(=O)[C@H](CC(C)C)N(C)C(=O)[C@@H]1C` (stereo partly drawn) [Example 173, (3R,6S,9S,12S,15S,18R,19R)-6-((3-Amino-2-hydroxypropoxy)methyl)-9-(aminomethyl)-12-cyclohexyl-19-hexyl-15-isobutyl-3,16,18-trimethyl-1-oxa-4,7,10,13,16-pentaazacyclononadecane-5,8,11,14,17-pentaone] (cyclo([Chg][Dap]S(X7)[X2][NMeL])) it is 12 µM (≈ 8.88 µg/mL). In turn, `CCCCCC[C@H]1OC(=O)CNC(=O)[C@H]([C@H](C)O)NC(=O)[C@H](CN)NC(=O)[C@H](CC(C)C)NC(=O)[C@H](CC(C)C)N(C)C(=O)[C@@H]1C` [Example 90, (6S,9S,12S,15S,18R,19R)-9-(aminomethyl)-19-hexyl-12,15-diisobutyl-16,18-dimethyl-6-[(1S)-1-hydroxyethyl]-1-oxa-4,7,10,13,16-pentazacyclononadecane-2,5,8,11,14,17-hexone] came in with an MIC of 21 µM (≈ 13.8 µg/mL).
